{
  "source": "patent US20170296540A1",
  "about": "“METHODS OF TREATING FRIEDREICH'S ATAXIA USING SRC INHIBITORS” (Fratagene Therapeutics S.R.L., priority 2014, published 2017)",
  "key": {"[1]": {"system": "HEK293^FXN cells stably expressing a single copy of wild-type frataxin", "assay": "Frataxin precursor accumulation with Src inhibitor, ubiquitin competing molecule or combination in HEK293^FXN cells", "conditions": "F166 1 uM; 24 h", "procedure": "Data are representative of four independent experiments. […] The frataxin expression was normalized with tubulin, and frataxin expression in non-treated cells (−) was set to 1. Data represent the mean±1 S.E.M. from four independent experiments.\nThe frataxin precursor (FXN) and tubulin expression (TUB) were analyzed by western blot (FIG. 7A). The data shown are representative of four independent experiments.\nThe amount of frataxin accumulation was quantified by densitometry (FIG. 7B). Frataxin expression was normalized with tubulin, and frataxin expression in non-treated cells (−) was set to 1. The data shown represent the mean±1 S.E.M. from four independent experiments."}, "[2]": {"system": "HEK293^FXN cells stably expressing single copy of wild type frataxin", "assay": "Frataxin accumulation (western blot, densitometry) in HEK293^FXN cells expressing wild type frataxin", "format": "cell-based, human", "conditions": "1, 3 and 10 μM, 24 h", "experimental": "(§1) FIG. 4. […] HEK293^FXN cells stably expressing single copy of wild type frataxin (WT) or non-phosphorylable Y118F frataxin mutant (Y118F) were treated for 24 h with 1, 3, and 10 μM of either Src inhibitor SU6656, PP2, dasatinib, bosutinib, saracatinib, or vehicle (−). […] Data are representative of three independent experiments. The precursor (P), intermediate (I) and mature (M) frataxin forms are indicated. Right panels: Densitometric quantification of frataxin accumulation for the corresponding inhibitor.\n(§2) HEK-293 Flp-In cells (Life Technologies) are HEK-293 variants allowing the stable and isogenic integration and expression of a transfected gene. The HEK-293 clone stably expressing frataxin^1-210 (Condo et al. 2007) and the clone stably expressing frataxin^V118F were generated by mutagenesis as described below. HEK-293 Flp-In cells were maintained in DMEM supplemented with 10% FBS.\n(§3) Densitometric analyses were performed using ImageLab software (Biorad).\n(§4) Because phosphorylation on Y118 promotes ubiquitination and that preventing ubiquitin-dependent degradation increases frataxin levels (Rufini et al. 2011), the effects of frataxin phosphorylation by Src kinase were tested for enhancement of frataxin expression."}, "[3]": {"system": "HEK293^FXN cells stably expressing non-phosphorylable Y118F frataxin mutant", "assay": "Frataxin accumulation (western blot, densitometry) in HEK293^FXN cells expressing Y118F frataxin mutant", "format": "cell-based, human", "conditions": "1, 3 and 10 μM, 24 h", "experimental": "as §1, §2, §3, §4"}, "[4]": {"system": "endogenous frataxin in HEK293 cells", "assay": "Endogenous frataxin accumulation in HEK293 cells (western blot, densitometry)", "format": "cell-based, human", "conditions": "1, 3 and 10 μM, 24 h", "procedure": "Human HEK293 cells were treated with 1, 3 and 10 μM of SU6656, PP2, and dasatinib Src inhibitor or vehicle (−) for 24 h. Frataxin (FXN) and tubulin expression (TUB) was analyzed by western blot. Data are representative of three independent experiments. […] Right panels: densitometric quantification of frataxin accumulation. Frataxin expression was normalized with tubulin and frataxin expression in non-treated cells (NT) set to one. Data represent the mean±1 S.E.M. from three different independent experiments performed for each inhibitor in the left panels.\nHuman embryonic kidney HEK-293 cells were cultured in Dulbecco's modified Eagle's medium (DMEM) supplemented with 10% fetal bovine serum (FBS). […]\nCell lysates (100 μg) were resolved by SDS-PAGE and analyzed by immunoblot with specific mAb anti-frataxin clone 1G2 and STR-23 (Immunological Sciences, Rome, Italy) mAb anti-tubulin (Sigma), mAb anti-actin (Sigma), mAb anti-phosphotyrosine (Millipore), pAb anti-phospho-Src (Life Technologies), mAb anti-GFP (Takara), secondary antibody horseradish peroxidase-conjugated goat anti-mouse (Pierce), secondary antibody horseradish peroxidase-conjugated mouse anti-rabbit (Pierce), secondary antibody horseradish peroxidase-conjugated goat anti-Fc anti-mouse (Thermo Scientific) using ECL system detection (GE Healthcare Europe GmbH, Milan, Italy). […]"}, "[5]": {"system": "FRDA patient-derived B cells (GM16214)", "procedure": "(§5) Left panels: mature frataxin (FXN) and tubulin expression (TUB) was analyzed by western blot. Data are representative of three independent experiments. Right panels: densitometric quantification of frataxin accumulation. Frataxin expression was normalized with tubulin and frataxin expression in non-treated cells (NT) set to one. Data represent the mean±1 S.E.M. from three different independent experiments performed for each inhibitor in the left panels.\n(§6) Total cell extracts were prepared in ice-cold modified RIPA buffer (10 mM sodium phosphate pH 7.2, 150 mM NaCl, 1% Na deoxycholate, 0.1% SDS, 1% Nonidet P-40, 2 mM EDTA) or IP buffer (50 mM Tris-HCl, pH 7.5, 150 mM NaCl, 1% Nonidet P-40, 5 mM EDTA, 5 mM EGTA) supplemented with complete protease inhibitor cocktail (Roche Diagnostics, Milan, Italy), sodium orthovanadate 1 mM and NaF 25 mM to inhibit phosphatases.\n(§7) Cell lysates (100 μg) were resolved by SDS-PAGE and analyzed by immunoblot with specific mAb anti-frataxin clone 1G2 and STR-23 (Immunological Sciences, Rome, Italy) mAb anti-tubulin (Sigma), mAb anti-actin (Sigma), mAb anti-phosphotyrosine (Millipore), pAb anti-phospho-Src (Life Technologies), mAb anti-GFP (Takara), secondary antibody horseradish peroxidase-conjugated goat anti-mouse (Pierce), secondary antibody horseradish peroxidase-conjugated mouse anti-rabbit (Pierce), secondary antibody horseradish peroxidase-conjugated goat anti-Fc anti-mouse (Thermo Scientific) using ECL system detection (GE Healthcare Europe GmbH, Milan, Italy).\n(§8) For treatment longer than 24 h, inhibitors were added every 2 days, and each time lymphoblasts were centrifuged and resuspended at 400.000 cells/ml with the indicated concentration of inhibitor.\n(§9) FRDA lymphoblasts were exposed to these inhibitors for different time periods."}, "[6]": {"system": "FRDA patient-derived B cells (GM16214)", "assay": "Frataxin accumulation in frataxin-deficient FRDA patient-derived B cells (western blot, densitometry)", "conditions": "for frataxin accumulation in frataxin-deficient cells (mature frataxin): FRDA patient-derived B cells, 10 μM, time course 24 h to 72 h", "procedure": "as §5, §6, §7, §8, §9"}, "[7]": {"system": "nude mice", "conditions": "mouse, in vivo, po; cited from earlier work"}},
  "note": "“Also recorded” adds a separate entry of the source. Where two headings read alike, the source gives them in different places.",
  "data": [
    {"smiles": "COc1ccccc1C(=O)N/N=C(\\C)c1ccc2c(c1)Nc1ccccc1S2", "note": "[F166]", "values": [
      {"measurement": "frataxin precursor accumulation, single agent", "setting": "[1]", "result": "accumulate frataxin precursor"}
    ]},
    {"smiles": "CC(C)(C)n1nc(-c2ccc(Cl)cc2)c2c(N)ncnc21", "note": "[PP2]", "values": [
      {"measurement": "frataxin accumulation (frataxin normalized with tubulin, non-treated cells set to one)", "setting": "[2]", "result": "upregulate wild type frataxin"},
      {"measurement": "frataxin accumulation (frataxin normalized with tubulin, non-treated cells set to one)", "setting": "[3]", "result": "not the non-phosphorylable Y118F frataxin mutant"},
      {"measurement": "endogenous frataxin accumulation", "setting": "[4]", "result": "promote endogenous frataxin accumulation"},
      {"measurement": "tolerability in cells", "setting": "[5]", "result": "best tolerated"},
      {"measurement": "frataxin accumulation in frataxin-deficient cells (mature frataxin)", "setting": "[6]", "result": "promote frataxin accumulation"}
    ]},
    {"smiles": "CN(C)S(=O)(=O)c1ccc2c(c1)/C(=C/c1cc3c([nH]1)CCCC3)C(=O)N2", "note": "[SU6656]", "values": [
      {"measurement": "frataxin accumulation (frataxin normalized with tubulin, non-treated cells set to one)", "setting": "[2]", "result": "upregulate wild type frataxin"},
      {"measurement": "frataxin accumulation (frataxin normalized with tubulin, non-treated cells set to one)", "setting": "[3]", "result": "not the non-phosphorylable Y118F frataxin mutant"},
      {"measurement": "endogenous frataxin accumulation", "setting": "[4]", "result": "promote endogenous frataxin accumulation"},
      {"measurement": "tolerability in cells", "setting": "[5]", "result": "best tolerated"},
      {"measurement": "frataxin accumulation in frataxin-deficient cells (mature frataxin)", "setting": "[6]", "result": "further accumulated within 72 h; also recorded: promote frataxin accumulation"}
    ]},
    {"smiles": "Cc1nc(Nc2ncc(C(=O)Nc3c(C)cccc3Cl)s2)cc(N2CCN(CCO)CC2)n1", "note": "[dasatinib]", "values": [
      {"measurement": "toxicity of regimen", "setting": "[7]", "result": "no toxicity"},
      {"measurement": "tolerability in cells", "setting": "[6]; FRDA patient-derived B cells (GM16214)", "result": "best tolerated"}
    ]}
  ]
}
